Measurements taken from ChEMBL document CHEMBL5107996, “Design and evaluation of achiral, non-atropisomeric 4-(aminomethyl)phthalazin-1(2H)-one derivatives as novel PRMT5/MTA inhibitors” (Bioorg Med Chem, 2022).

Key:
[1] = Metabolic stability in human hepatocytes assessed as intrinsic clearance; format: ADME, cell-based, Hepatocyte; conditions: read-out: CLH
HCT-116 [2] = assay: Antiproliferative activity against human HCT-116 cells expressing wild type MTAP assessed as cell viability after 10 days by CellTiter-Glo assay; format: functional, cell-based; conditions: HCT-116, 240 h
[3] = biological target: T1, Protein arginine N-methyltransferase 5 (Homo sapiens, UniProt O14744); assay: Inhibition of PRMT5 methyltransferase activity in human HCT-116 cells expressing wild type MTAP assessed as inhibition of PRMT5-mediated SDMA modification level incubated for 96 hrs by In-cell Western analysis; format: cell-based
T1 sequence (O14744 whole entry): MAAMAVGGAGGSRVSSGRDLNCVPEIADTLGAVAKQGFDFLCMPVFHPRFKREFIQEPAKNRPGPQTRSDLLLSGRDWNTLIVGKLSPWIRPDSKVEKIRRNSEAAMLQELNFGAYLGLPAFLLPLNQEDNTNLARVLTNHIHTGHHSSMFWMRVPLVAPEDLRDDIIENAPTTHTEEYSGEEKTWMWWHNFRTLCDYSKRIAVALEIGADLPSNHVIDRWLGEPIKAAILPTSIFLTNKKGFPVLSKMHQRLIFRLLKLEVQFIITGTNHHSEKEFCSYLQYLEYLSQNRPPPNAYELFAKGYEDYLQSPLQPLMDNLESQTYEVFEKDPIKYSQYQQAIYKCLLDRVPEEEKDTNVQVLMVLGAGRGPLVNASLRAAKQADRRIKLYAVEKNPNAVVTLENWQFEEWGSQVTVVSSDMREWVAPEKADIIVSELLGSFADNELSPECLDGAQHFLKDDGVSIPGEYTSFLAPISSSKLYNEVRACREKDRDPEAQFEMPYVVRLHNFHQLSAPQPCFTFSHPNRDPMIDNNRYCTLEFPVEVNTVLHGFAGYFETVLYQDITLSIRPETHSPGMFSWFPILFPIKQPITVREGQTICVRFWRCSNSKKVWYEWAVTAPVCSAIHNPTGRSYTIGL

HCT-116 [4] = assay: Antiproliferative activity against MTAP knockout human HCT-116 cells assessed as cell viability after 10 days by CellTiter-Glo assay; format: functional, cell-based; conditions: HCT-116, 240 h
[5] = Ratio IC50 for antiproliferative activity against human HCT-116 cells expressing wild type MTAP to IC50 for antiproliferative activity against MTAP knockout human HCT-116 cells
[6] = biological target: T1, Protein arginine N-methyltransferase 5; assay: Inhibition of PRMT5 methyltransferase activity in MTAP knockout human HCT-116 cells assessed as inhibition of PRMT5-mediated SDMA modification level incubated for 96 hrs by In-cell Western analysis; format: cell-based
HepG2 = assay: Antiproliferative activity against human HepG2 cells assessed as inhibition of cell viability measured after 120 hrs CellTiter-Glo assay; format: functional, cell-based; conditions: HepG2, 120 h
[7] = biological target: T1, Protein arginine N-methyltransferase 5; assay: Inhibition of PRMT5 (unknown origin) using H2A and 3H-SAM as substrates preincubated for 20 mins followed by substrate addition incubated for 60 mins in presence of MTA by radiometric HotSpot assay

SMILES | CLint scaled [1] | IC50 (HCT-116 [2]) | IC50 [3] | IC50 (HCT-116 [4]) | Ratio IC50 [5] | IC50 [6] | IC50 (HepG2) | IC50 [7]
Cn1ncc(-c2cc(Cl)c3c(=O)[nH]nc(CN)c3c2)c1-c1sc2ccccc2c1C#N | 71 mL/min/kg | 734 nM | > 1000 nM | 52 nM | 14 | 17 nM | – | –
COCc1cc(-c2cnn(C)c2-c2sc3ccccc3c2C#N)cc2c(CN)n[nH]c(=O)c12 | 66 mL/min/kg | 51 nM | 267 nM | 19 nM | 3 | 5 nM | 490 nM | –
Cn1ncc(-c2cc(O)c3c(=O)[nH]nc(CN)c3c2)c1-c1sc2ccccc2c1C#N | < 18 mL/min/kg | 4350 nM | > 1000 nM | 188 nM | 23 | 262 nM | – | –
Cc1cc(-c2cnn(C)c2-c2sc3ccccc3c2C#N)cc2c(CN)n[nH]c(=O)c12 | 27 mL/min/kg | 1470 nM | > 1000 nM | 30 nM | 49 | 17 nM | – | –
Cn1ncc(-c2cc(C(F)F)c3c(=O)[nH]nc(CN)c3c2)c1-c1sc2ccccc2c1C#N | 44 mL/min/kg | 2030 nM | 759 nM | 37 nM | 55 | 25 nM | – | –
Cn1ncc(-c2ccc3c(=O)[nH]nc(CN)c3c2)c1-c1sc2ncccc2c1C#N | – | – | – | 315 nM | – | – | – | 99 nM
Cn1ncc(-c2ccc3c(=O)[nH]nc(CN)c3c2)c1-c1sc2cnccc2c1C#N | – | – | – | 1470 nM | – | – | – | 223 nM
Cn1ncc(-c2ccc3c(=O)[nH]nc(CN)c3n2)c1-c1sc2ccccc2c1C#N | – | – | – | 250 nM | – | – | – | –
Cn1ncc(-c2cnc3c(=O)[nH]nc(CN)c3c2)c1-c1sc2ccccc2c1C#N | – | – | – | 3510 nM | – | – | – | 1350 nM
Cn1ncc(-c2ccc3c(=O)[nH]nc(CN)c3c2)c1-c1sc2cccnc2c1C#N | – | – | – | 1540 nM | – | – | – | 650 nM
Cn1ncc(-c2ccc3c(=O)[nH]nc(CN)c3c2)c1-c1sc2ccccc2c1C#N | – | – | > 1000 nM | – | 100 | – | 18300 nM | 37 nM
Cn1ncc(-c2ccc3c(=O)[nH]nc(CN)c3c2)c1-c1sc2ccncc2c1C#N | – | – | – | 2940 nM | – | – | – | 768 nM
Cn1ncc(-c2ccc3c(=O)[nH]nc(CN)c3c2)c1-c1c(F)c(Cl)cc(OC2CC2)c1C#N | < 18 mL/min/kg | – | – | – | – | – | 6600 nM | –
CCOc1cc(-c2cnn(C)c2-c2sc3ccccc3c2C#N)cc2c(CN)n[nH]c(=O)c12 | < 18 mL/min/kg | 637 nM | 618 nM | 150 nM | 4 | 112 nM | – | –
Cn1ncc(-c2cc([C@@H]3CCCO3)c3c(=O)[nH]nc(CN)c3c2)c1-c1sc2ccccc2c1C#N | 43 mL/min/kg | 2050 nM | > 1000 nM | 711 nM | 3 | 390 nM | – | –
Cn1ncc(-c2cc([C@H]3CCCO3)c3c(=O)[nH]nc(CN)c3c2)c1-c1sc2ccccc2c1C#N | 39 mL/min/kg | 29 nM | 174 nM | 16 nM | 2 | 4 nM | 290 nM | –
